Data reported in publication PMC6778635 (Cancer Science, 2019).

Target: p97/VCP (Homo sapiens, UniProt P55072)
Test: cell-free ATPase assay on purified recombinant p97/VCP
Format: biochemical

Sequence of p97/VCP (P55072 2-806): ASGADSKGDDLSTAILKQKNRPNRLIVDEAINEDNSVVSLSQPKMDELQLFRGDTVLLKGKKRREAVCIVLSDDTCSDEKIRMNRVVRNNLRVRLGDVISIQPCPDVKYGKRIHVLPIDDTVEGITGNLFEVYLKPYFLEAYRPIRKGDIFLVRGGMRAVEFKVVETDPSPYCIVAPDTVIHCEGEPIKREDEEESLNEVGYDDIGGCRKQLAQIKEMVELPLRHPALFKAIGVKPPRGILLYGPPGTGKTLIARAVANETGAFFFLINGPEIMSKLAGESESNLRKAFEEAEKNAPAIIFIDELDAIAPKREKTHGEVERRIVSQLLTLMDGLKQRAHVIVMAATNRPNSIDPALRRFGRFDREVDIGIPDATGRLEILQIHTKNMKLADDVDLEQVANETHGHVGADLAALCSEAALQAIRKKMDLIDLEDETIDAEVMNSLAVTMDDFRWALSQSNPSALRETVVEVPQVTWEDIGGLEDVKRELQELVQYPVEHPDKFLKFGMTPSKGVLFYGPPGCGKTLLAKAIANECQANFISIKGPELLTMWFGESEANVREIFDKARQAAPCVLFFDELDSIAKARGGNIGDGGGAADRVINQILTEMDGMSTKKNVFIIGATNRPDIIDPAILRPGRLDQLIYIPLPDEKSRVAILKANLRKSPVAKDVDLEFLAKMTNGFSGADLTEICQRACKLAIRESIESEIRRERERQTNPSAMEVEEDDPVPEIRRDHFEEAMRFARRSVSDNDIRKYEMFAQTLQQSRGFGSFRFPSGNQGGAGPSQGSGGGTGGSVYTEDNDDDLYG

IC50: 6.99 ± 0.5 µM
Compound: c1ccc(CNc2nc(NCc3ccccc3)c3ccccc3n2)cc1 [DBeQ]
